Source: US5925369A, “Bis alkanoyl esters of carnitine having bactericidal, fungicidal and antiprotozoal activity” (priority 1996, dated 1999)
Like-named read-outs stand apart in the source and are kept apart here.

How the values were obtained:
bacteria and fungi = settings: bactericidal (EP-A-0 552 137) and fungicidal (EP-A-0 552 138); cited from earlier work
C. tropicalis = assay: MIC on yeast-like strains; type: cell-based; settings: Candida tropicalis; C. tropicalis ISS 1, lab collection; read-out: Minimal Inhibitory Concentration
Experimental: (§1) Overnight yeast cultures in Sabouraud broth are appropriately washed and diluted in Yeast Nitrogen Base supplemented with asparagine and glucose (Y.N.B.s.) to yield approximately 5.0×10^4 CFU/ml in microtiter wells. Substance dilutions (0.3 log) in Y.N.B.s. are added to these suspensions to a final concentration range from 0.19 to 100 mcg/ml. Microtiter plates are then incubated at 35° C. for 24-48 hours (See PFALLER M., RINALDI M. G., […] J. M., BARTLETT M. S., BODY B. A., ESPINEL-INGROFF A., FROMTLING R. A., HALL G. S., HUGHES G. E., ODDS F. C., SUGAR A. M., Collaborative investigator of variables in susceptibility testing of yeasts, Ant. Agent and Chemoth., 34, 9:1648-1656, 1990. COOK R., McINTYRE K. A., […] J. M., Effects of incubation temperature, inoculum size, and medium on agreement of macro and microdilution broth susceptibility test, results for yeasts, Ant. Agent and Chemoth., 34, 8:1542-1545, 1990. […] E., PAETZNICK V., BODEY G. P., Fluconazole susceptibility testing of "Candida albicans" microtiter method that is indipendent of inoculum size, temperature, and time of reaching, Ant. Agent and Chemoth., 35, 8:1641-1646, 1991).

S. cerevisiae = assay: MIC on yeast-like strains; type: cell-based; settings: Saccharomyces cerevisiae, ATCC7752; S. cerevisiae ATCC 7752, lab collection; read-out: Minimal Inhibitory Concentration
Experimental: as §1

C. krusei = assay: MIC on yeast-like strains; type: cell-based; settings: Pichia kudriavzevii; C. krusei ISS 1, lab collection; read-out: Minimal Inhibitory Concentration
Experimental: as §1

Candida albicans = assay: MIC on yeast-like strains; type: cell-based; settings: read-out: Minimal Inhibitory Concentration
Experimental: as §1

Gram positive bacteria = assay: MIC on Gram positive bacteria (all strains); type: cell-based
Experimental: Bacterial suspensions are prepared from an overnight culture in Mueller-Hinton broth and are adjusted, in the same medium, to a final concentration of 5.0×10^4 cells/ml in each well of a 96-well microtiter plate. Substance dilutions (0.3 log) in Mueller-Hinton broth are added to the suspensions in order to have a range of final concentrations from 0.19 to 100 mcg/ml.
Microtiters are then incubated at 37° C. for 18 hours. (See L. D. THRUPP, Susceptibility testing of antibiotics in liquid media, in: Antibiotics in laboratory medicine. V. LORIAN Ed., II edition, 4, 93-150, Williams & Wilkins, Baltimora, Md. 21202 U.S.A.).

[1] = system: T. mentagrophytes IDI D1049; assay: Antifungal activity in experimental Tinea pedis in the guinea-pig paw; type: in vivo, Hartley guinea-pig; settings: for A (clinical sign score) / D (clinical sign score) / E (clinical sign score): scale 0-3; for sterile samples (%) / sterile samples (n = 30), number over total: 20 days once a day, day +31
Source text: Twelve male Hartley guinea-pig (C. RIVER), weighing 350-400 gr, have been utilized (3 animals per experimental group).
One clinical isolate (Tricophyton mentagrophytes IDI D 1049, from Immacolata Dermatological Institute of Rome) was utilized.
Microaleuriospores were first harvested by scraping from a 7-day fungal culture grown in Potato dextrose agar, and then resuspended in Sabouraud broth with 0.5% Tween 80.
After washing, the spores were standardized in sterile saline to yield a final concentration of 1.0×10^8 spores/ml.
Each group included 3 animals, and only the left hind paw was inoculated. For the 2 control groups, 3 animals in total were used, as both hind paws of each animal were inoculated.
Filter paper discs (12-mm diameter and 0.3-mm thickness) were covered with aluminum foil in the lower part to prevent the inoculum spreading. This filter was then sticked to a 1×3-cm piece of biadesive plaster, which adhered to a gauze wrapped around the paw.
The filter paper disc was then wetted with 100 μl of the infective suspension, and subsequently fixed to the guinea-pig paw.
The animal paw was tied up with bandage and plaster, and then left in these conditions for 7 days.
Seven days after infection, the infected areas were uncovered and the type of lesion was graded according to an arbitrary scale, as follows:
These "clinical" signs were examined again on days +14, +21, and +31 (day of sacrifice of animals). Three days following the first observation of the type of lesion (day +10), treatments with the differrent formulations were started, and they went on for 20 days (once a day). Two days following the last treatment (day +31), animals were sacrificed and plantar areas of the paws were dissected into 10 parts for each paw.
These sections were plated onto Mycobiotic agar supplemented with Penicillin G and Streptomicin (100 mcg/ml). Volumes of 50 μl of both antibiotics were then added to the plantar sections to prevent any bacterial growth that might interfere with the growth of T. mentagrophytes in the samples under examination.
The data obtained were expressed as the number of microbiologically sterile cutaneous sections over the total examined sections.

[2] = C. albicans 562, lab collection
[3] = C. albicans ISS 1, lab collection
[4] = Candida albicans 1786/94, clinical isolate
[5] = Candida albicans IDI D 0101, clinical isolate (eczema, internatal; prior Versus)
[6] = Candida albicans IDI D 0297, clinical isolate (vulvar vaginitis; prior Pevaryl)
[7] = Candida albicans IDI D 1046, clinical isolate (glossitis; prior Daktarin)
[8] = Candida albicans IDI D 1056, clinical isolate
[9] = Candida albicans IDI D 1088, clinical isolate
[10] = Candida albicans IDI D 3575, clinical isolate
[11] = Candida albicans SG 2 III, clinical isolate (vaginitis)
[12] = Candida albicans SG 7 I, clinical isolate (Tinea unguis, hands)
[13] = Candida albicans SG 14 III, clinical isolate (vaginitis)

## CCCCCCCCCCCOC(=O)C[C@H](C[N+](C)(C)C)OC(=O)CC(C)C [ST 1103, isovaleryl L-carnitine undecyl ester methanesulfonate, reference compound]
Bacteria and fungi
  activity among the known compounds: most active both as bactericidal and fungicidal agent
C. tropicalis
  MIC: 3.12 mg/L
S. cerevisiae
  MIC: 3.12 mg/L
C. krusei
  MIC: 3.12 mg/L
Candida albicans; [2]
  MIC: 3.12 mg/L
Candida albicans; [3]
  MIC: 1.56 mg/L
Candida albicans; [4]
  MIC: 6.25 mg/L
Candida albicans; [5]
  MIC: 6.25 mg/L
Candida albicans; [6]
  MIC: 3.12 mg/L
Candida albicans; [7]
  MIC: 3.12 mg/L
Candida albicans; [8]
  MIC: 3.12 mg/L
Candida albicans; [9]
  MIC: 3.12 mg/L
Candida albicans; [10]
  MIC: 6.25 mg/L
Candida albicans; [11]
  MIC: 6.25 mg/L
Candida albicans; [12]
  MIC: 3.12 mg/L
Candida albicans; [13]
  MIC: 6.25 mg/L
Gram positive bacteria; clinical isolates, 10 strains
  MIC: 3.9 mg/L
Gram positive bacteria; lab collection, 5 strains
  MIC: 4.06 mg/L

## CCCCCCCCCCC(=O)O[C@H](CC(=O)OCc1ccc(COC(=O)C[C@H](C[N+](C)(C)C)OC(=O)CCCCCCCCCC)cc1)C[N+](C)(C)C [ST 1226, bis(undecanoyl L-carnitine chloride)p-xylilene diester]
C. tropicalis
  MIC: 1.56 mg/L
S. cerevisiae
  MIC: 1.56 mg/L
C. krusei
  MIC: 3.12 mg/L
Candida albicans; [2]
  MIC: 3.12 mg/L
Candida albicans; [3]
  MIC: 3.12 mg/L
Candida albicans; [4]
  MIC: 3.12 mg/L
Candida albicans; [5]
  MIC: 1.56 mg/L
Candida albicans; [6]
  MIC: 3.12 mg/L
Candida albicans; [7]
  MIC: 3.12 mg/L
Candida albicans; [8]
  MIC: 1.56 mg/L
Candida albicans; [9]
  MIC: 3.12 mg/L
Candida albicans; [10]
  MIC: 3.12 mg/L
Candida albicans; [11]
  MIC: 1.56 mg/L
Candida albicans; [12]
  MIC: 3.12 mg/L
Candida albicans; [13]
  MIC: 1.56 mg/L
[1]; 1% ST 1226
  microbiological recovery: 80%
[1]; 1%, 7th day
  A (clinical sign score): 0
  D (clinical sign score): 0
  E (clinical sign score): 0
[1]; 1%, 14th day
  A (clinical sign score): 0
  D (clinical sign score): 0
  E (clinical sign score): 0
[1]; 1%, 21st day
  A (clinical sign score): 0
  D (clinical sign score): 0
  E (clinical sign score): 0
[1]; 1%, 31st day
  A (clinical sign score): 0
  D (clinical sign score): 0
  E (clinical sign score): 0
[1]; 1%
  sterile samples (%): 80%
  sterile samples (n = 30), number over total: 24/30
[1]; 1.5% ST 1226
  microbiological recovery: 100%
[1]; 1.5%, 7th day
  A (clinical sign score): 0
  D (clinical sign score): 0
  E (clinical sign score): 0
[1]; 1.5%, 14th day
  A (clinical sign score): 0
  D (clinical sign score): 0
  E (clinical sign score): 0
[1]; 1.5%, 21st day
  A (clinical sign score): 0
  D (clinical sign score): 0
  E (clinical sign score): 0
[1]; 1.5%, 31st day
  A (clinical sign score): 0
  D (clinical sign score): 0
  E (clinical sign score): 0
[1]; 1.5%
  sterile samples (%): 100%
  sterile samples (n = 30), number over total: 20/20
